Experimental data reported in publication PMC12605013, “SAG1.3-derived Frizzled-targeting small-molecule compounds” (The Journal of Biological Chemistry, 2025).

Columns and labels:
Nluc-FZD6 = biological target: T1, Nluc-FZD6 (Homo sapiens, UniProt O60353); experiment: BRET-based BODIPY-cyclopamine competition binding at Nluc-FZD6 in live HEK293 cells
T1 construct: expressed in transfected cells; host or cells: ΔSMO HEK293A or ΔFZD1–10 HEK293T cells (screen); ΔFZD1–10 HEK293T cells (concentration–response curves)
T1 sequence (O60353 19-706): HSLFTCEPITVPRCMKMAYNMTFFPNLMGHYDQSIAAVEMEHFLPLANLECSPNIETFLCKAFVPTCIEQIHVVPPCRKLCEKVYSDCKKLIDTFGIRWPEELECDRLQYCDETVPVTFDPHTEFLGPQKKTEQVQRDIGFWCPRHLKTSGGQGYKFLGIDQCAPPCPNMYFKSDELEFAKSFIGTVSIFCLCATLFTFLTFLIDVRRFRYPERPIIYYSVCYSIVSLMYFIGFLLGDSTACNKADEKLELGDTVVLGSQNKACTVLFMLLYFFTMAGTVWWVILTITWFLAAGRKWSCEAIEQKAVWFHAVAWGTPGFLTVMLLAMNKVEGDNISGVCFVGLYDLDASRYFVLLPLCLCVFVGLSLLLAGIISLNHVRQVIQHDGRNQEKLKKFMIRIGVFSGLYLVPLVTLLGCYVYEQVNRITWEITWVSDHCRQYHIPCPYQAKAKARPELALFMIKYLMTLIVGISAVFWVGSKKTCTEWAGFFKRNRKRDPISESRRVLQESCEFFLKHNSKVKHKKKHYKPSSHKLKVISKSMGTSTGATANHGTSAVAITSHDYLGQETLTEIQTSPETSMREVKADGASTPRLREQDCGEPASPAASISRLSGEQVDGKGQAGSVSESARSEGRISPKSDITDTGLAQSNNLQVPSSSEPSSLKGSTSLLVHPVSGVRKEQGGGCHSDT
Procedure: After 24 h, cells were washed once with Hanks' balanced salt solution (HBSS), followed by the addition of 80 μl of HBSS. Next, 10 μl of the competitive ligand, that is, the tested SAG1.3 derivative (either in different concentrations for the concentration–response curves or at a final concentration of 10 μM for the first screens) and 10 μl of the fluorescent tracer BODIPY–cyclopamine (final concentration: 300 nM for the first screens, 200 nM for the concentration–response experiments) were added. All serial dilutions were prepared in HBSS. The cells were incubated for 90 min at 37 °C without additional CO2, after which 10 μl of luciferase substrate diluted in HBSS (furimazine; Promega, N1572, final dilution: 1:1000 for first screening) and coelenterazine h (Biosynth; final concentration: 5 μM for concentration–response experiments) were added to the cells. Following a 10 min incubation period in the dark, the measurement was started on a BMG Labtech ClarioStar or TECAN Spark multimode microplate reader, prewarmed to 37 °C. Nluc bioluminescence was detected between 460 and 490 nm (ClarioStar) or 460 and 500 nm (TECAN Spark). The emission of the fluorescent tracer was detected between 520 and 550 nm (ClarioStar) or between 520 and 560 nm (TECAN Spark).
For each binding experiment, the measurement was repeated five times and averaged for the analysis. ΔBRET values were obtained by subtracting the BRET ratio obtained in wells containing BODIPY–cyclopamine but no competitive ligand (100% value). The BRET values for full displacement were defined using “donor-only” control wells, which contained Nluc-FZDx-transfected cells but no BODIPY–cyclopamine.
For the full concentration–response BRET binding curves in Figure 2, BRET values were normalized (separately for each experiment) to control wells containing BODIPY–cyclopamine but no competitive ligand (100% value) and “donor-only” wells (0% value, described previously). […] Obtained IC50 values were transformed to pIC50 values, which were subsequently averaged between experiments. Displacement curves showing the non-normalized data (ΔBRET values generated as described previously) can be found in Fig. S2.
Shown are mean values and SDs from N independent experiments (N = 2-8) performed in duplicate.
Shown are mean values ± SEM from N independent experiments performed in triplicate.

Nluc-FZD5 = biological target: T2, Nluc-FZD5 (Homo sapiens, UniProt Q13467); experiment: BRET-based BODIPY-cyclopamine competition binding at Nluc-FZD5; details: BODIPY-cyclopamine 200 nM; ΔFZD1-10 HEK293T cells; read-out: pIC50 (11) mean ± SEM, Nluc-FZD5 (converted)
T2 construct: expressed in transfected cells; host or cells: ΔFZD1–10 HEK293T cells
T2 sequence (Q13467 27-585): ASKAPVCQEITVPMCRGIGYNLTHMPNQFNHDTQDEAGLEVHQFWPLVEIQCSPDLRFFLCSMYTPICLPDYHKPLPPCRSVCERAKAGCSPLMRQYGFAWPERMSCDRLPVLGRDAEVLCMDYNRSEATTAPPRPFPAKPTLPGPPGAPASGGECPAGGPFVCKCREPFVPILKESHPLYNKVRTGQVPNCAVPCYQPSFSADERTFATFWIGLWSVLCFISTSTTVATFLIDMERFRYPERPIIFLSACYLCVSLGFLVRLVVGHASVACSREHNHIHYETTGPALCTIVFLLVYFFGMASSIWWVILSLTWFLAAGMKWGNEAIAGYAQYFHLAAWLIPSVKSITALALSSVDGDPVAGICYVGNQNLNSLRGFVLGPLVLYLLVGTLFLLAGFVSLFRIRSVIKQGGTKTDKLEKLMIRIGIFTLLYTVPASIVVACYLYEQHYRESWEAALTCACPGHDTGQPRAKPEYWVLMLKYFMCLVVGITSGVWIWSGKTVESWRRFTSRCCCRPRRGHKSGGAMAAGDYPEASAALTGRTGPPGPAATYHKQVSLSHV
Procedure: After 24 h, cells were washed once with Hanks' balanced salt solution (HBSS), followed by the addition of 80 μl of HBSS. Next, 10 μl of the competitive ligand, that is, the tested SAG1.3 derivative (either in different concentrations for the concentration–response curves or at a final concentration of 10 μM for the first screens) and 10 μl of the fluorescent tracer BODIPY–cyclopamine (final concentration: 300 nM for the first screens, 200 nM for the concentration–response experiments) were added. All serial dilutions were prepared in HBSS. The cells were incubated for 90 min at 37 °C without additional CO2, after which 10 μl of luciferase substrate diluted in HBSS (furimazine; Promega, N1572, final dilution: 1:1000 for first screening) and coelenterazine h (Biosynth; final concentration: 5 μM for concentration–response experiments) were added to the cells. Following a 10 min incubation period in the dark, the measurement was started on a BMG Labtech ClarioStar or TECAN Spark multimode microplate reader, prewarmed to 37 °C. Nluc bioluminescence was detected between 460 and 490 nm (ClarioStar) or 460 and 500 nm (TECAN Spark). The emission of the fluorescent tracer was detected between 520 and 550 nm (ClarioStar) or between 520 and 560 nm (TECAN Spark). […]

PANC-1 cells = experiment: Cell viability (AlamarBlue) of PANC-1 cells; assay type: cell-based, human; details: one-week treatment; 10 µM
Procedure: HPAF-II cells and PANC-1 cells were seeded in DMEM at a density of 1000 cells per well into a black opaque 96-well plate (Greiner BioOne). After 1 day, the medium was exchanged with complete DMEM containing either compound 11, the porcupine inhibitor C59, or DMSO (vehicle control). After 3 days of incubation (37 °C, 5% CO2), the medium was exchanged once again with DMEM containing the same concentration of ligands or DMSO (vehicle control). Three days after (equal to 7 days after seeding), the medium was removed and 90 μl of fresh DMEM (without any ligands) were added. Last, 10 μl of AlamarBlue HS reagent (Thermo Fisher Scientific; catalog no.: A50100) were added to each well, and the cells were incubated for 4 h at 37 °C inside the incubator (5% CO2). After the incubation step, fluorescence was read using a TECAN Spark multimode microplate reader (excitation: 535 ± 25 nm, emission: 595 ± 35 nm).
For each cell viability experiment, the fluorescence measured in ligand-treated wells was normalized to the average fluorescence from wells treated with vehicle control (DMSO).

With `CC(=O)Nc1cccc(C(=O)NC2CCC(N(Cc3cccc(-c4ccncc4)c3)C(=O)c3sc4ccccc4c3Cl)CC2)c1` (stereo not drawn) [compound 11, N-((1r,4r)-4-(3-Acetamidobenzamido)cyclohexyl)-3-chloro-N-(3-(pyridin-4-yl)benzyl)benzo[b]thiophene-2-carboxamide] the “Displacement @ 10 µM compound (Nluc-FZD6) ΔBRET” value (Nluc-FZD6; 10 µM compound, BODIPY-cyclopamine 300 nM, BMG Labtech ClarioStar reader (complete tracer displacement: net BRET = -0.02736)) was -0.0228, the Displacement % (Nluc-FZD6; 10 µM compound, BODIPY-cyclopamine 300 nM, ClarioStar reader) was 83.2% and the IC50 (Nluc-FZD6; BODIPY-cyclopamine 200 nM, ΔFZD1-10 HEK293T cells, read-out: pIC50 (Nluc-FZD6) mean ± SEM (converted)) was 1020 nM. The “IC50 values of competition binding within the FZD family (in words)” value (Nluc-FZD6; Nluc-FZD6 and other FZD paralogs) was “three-digit nanomolar to single-digit micromolar range”, the IC50 (Nluc-FZD5) was 759 nM and the “Cell viability of RNF43-wildtype PANC-1 cells” value (PANC-1 cells) was “not significantly affected”.
